According to article PMC10906241, “Molecular Insights into O-Linked Sialoglycans Recognition by the Siglec-Like SLBR-N (SLBRUB10712) of Streptococcus gordonii” (ACS Central Science, 2024):

Target: SLBR-N (SLBRUB10712) (Streptococcus mitis, UniProt A0A6I8WFK9)
Test: ITC
Details: single-site binding model

Chain of SLBR-N (SLBRUB10712) (A0A6I8WFK9 entry or part of it): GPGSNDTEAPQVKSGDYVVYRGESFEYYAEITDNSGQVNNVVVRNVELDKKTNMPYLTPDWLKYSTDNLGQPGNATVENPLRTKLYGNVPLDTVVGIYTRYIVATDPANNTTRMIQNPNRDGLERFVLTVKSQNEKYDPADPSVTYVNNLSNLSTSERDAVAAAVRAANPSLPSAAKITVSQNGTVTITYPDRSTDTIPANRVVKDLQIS

Structure (SMILES): CC(=O)N[C@H]1[C@H](OC[C@H]2O[C@H](O[C@H](C)[C@H](N)C(=O)O)[C@H](NC(C)=O)[C@@H](O[C@@H]3O[C@H](CO)[C@H](O)[C@H](O[C@]4(C(=O)O)C[C@H](O)[C@@H](NC(C)=O)[C@H]([C@H](O)[C@H](O)CO)O4)[C@H]3O)[C@H]2O)O[C@H](CO)[C@@H](O[C@@H]2O[C@H](CO)[C@H](O)[C@H](O[C@]3(C(=O)O)C[C@H](O)[C@@H](NC(C)=O)[C@H]([C@H](O)[C@H](O)CO)O3)[C@H]2O)[C@@H]1O [compound 5, ligand 5]
- Kd: 15.1 ± 1.13 µM
